“Also recorded” adds a separate entry of the source.
Legend:
rabbit gastric glands = test: Intracellular ATP in rabbit gastric glands; format: cell-based
bullfrog gastric mucosa [1] = conditions: cited from earlier work
[2] = tested on: cimetidine-inhibited tissues; test: Resistance (R) of cimetidine-inhibited gastric mucosa tissues; format: cell-based, bullfrog; conditions: pH 7.2
Protocol: Tissues were incubated with cimetidine until acid secretion reached 0 μEq/hr cm^2; experiments were performed only if the R of paired tissues was different by 10% or less.

bullfrog gastric mucosa [3] = test: Acid secretion of frog (bullfrog) gastric mucosa stimulated with histamine/carbachol or forskolin; format: cell-based
bullfrog gastric mucosa [4] = format: cell-based
Protocol: FIG. 1B Electrophysiology in the bullfrog gastric mucosa. […] Removal of NH4Cl was followed by a complete recovery of R within 30 min. Data were obtained from 21 experiments and are expressed as the mean±SEM.
FIG. 1C Electrophysiology in the bullfrog gastric mucosa. […] Removal of NH4Cl was followed by a complete recovery of PD within 30 min. Data were obtained from 21 experiments and are expressed as the mean±SEM.

[5] = tested on: Ca^2+-dependent inwardly rectifying K^+ channel; conditions: HeLa cells (Diaz et al.); cited from earlier work

In the case of Cl.N [NH4Cl, ammonium chloride], the “effect on concentration of ATP (in words)” value (rabbit gastric glands) is reported as “statistically significant reduction in the concentration of ATP”, the “intracellular ATP” value (rabbit gastric glands) is reported as 3.76±0.12 μM/mg protein and the “intracellular ATP, % of control” value (rabbit gastric glands) is reported as 83 % of control. The “effect of luminal NH4Cl on tissue resistance (Yanaka et al.)” value (bullfrog gastric mucosa [1]) was “significant decrement in tissue resistance”, the “effect of basolateral NH4Cl on acid secretion (Yanaka et al.)” value (bullfrog gastric mucosa [1]; pH 7.2) was “rapidly and completely inhibits acid secretion” and the “effect of NH4Cl on R of cimetidine-inhibited tissues (in words)” value [2] was “does not cause an increase in R; also recorded: no change in R”. For the same compound, the “Rate of decline in acid secretion” value (bullfrog gastric mucosa [3]) was −0.2881 (μEq/h · cm^2)/min, the “acid secretion after NH4Cl washed from the nutrient bath” value (bullfrog gastric mucosa [3]) was 5.51±0.16 μEq/hr cm^2 and the “effect of 1-9 mM NH4Cl on acid secretion” value (bullfrog gastric mucosa [3]) was “inhibition of acid secretion”. For the same compound, the “least (minimum) concentration required for complete inhibition of acid secretion within 30 min” value (bullfrog gastric mucosa [3]) was 10 mM, the “rate of decline of acid secretion relative to cimetidine” value (bullfrog gastric mucosa [3]) was 3.6 times faster and the “rate of decline of acid secretion relative to omeprazole” value (bullfrog gastric mucosa [3]) was 3.2 times faster. For the same compound, the “rate of inhibition of acid secretion relative to cimetidine or omeprazole” value (bullfrog gastric mucosa [3]) was “more than 3 times faster”, the “time to complete inhibition of stimulated acid secretion” value (bullfrog gastric mucosa [3]) was no more than 30 min and the “rate of acid secretion after NH4Cl” value (bullfrog gastric mucosa [3]; pH 7.2) was 0±0 μEq/hr cm^2. For the same compound, the “PD after NH4Cl” value (bullfrog gastric mucosa [4]) was 28.48±1.47 mvolts, the “PD after NH4Cl washed out” value (bullfrog gastric mucosa [4]) was 7.95±2.65 mvolts and the “R after NH4Cl” value (bullfrog gastric mucosa [4]) was 306.5±16.11 Ohm cm^2. For the same compound, the “R after NH4Cl washed out” value (bullfrog gastric mucosa [4]) was 159.0±16.83 Ohm cm^2, the “effect on potential difference (PD) of stimulated tissues (in words)” value (bullfrog gastric mucosa [4]) was “increase in potential difference (PD)” and the “effect on resistance (R) of stimulated tissues (in words)” value (bullfrog gastric mucosa [4]) was “increase in resistance (R)”.
In the case of N [NH4^+], the “inhibition of Ca2+-dependent inwardly rectifying K+ channel activity” value [5] is listed as “potent inhibitor”.
